Measured values as given in PubChem BioAssay AID330 (DTP/NCI, 2004).
“And” between values parts separate entries of the source, which are not always exact repeats. Identical values can stand only once. Toxic doses and inconclusive results are not listed.

Test system: P388 leukemia ip, CD2F1 mice, survival T/C
Experiment: NCI In Vivo Anticancer Drug Screen. Data for tumor model P388 Leukemia (intraperitoneal) in CD2F1 (CDF1) mice
Conditions: endpoint: median survival time, higher = longer survival
Summary of the method: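 Mice carrying the transplanted tumor received test compound or vehicle. Survival was recorded in each group, and the value is the treated-group measurement divided by that of the vehicle-treated control group.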

[1] = dose: 12.5 mg/kg/injection, schedule: Q01DX009 (ip), vehicle: saline with Tween-80
[2] = dose: 25.0 mg/kg/injection, schedule: Q01DX009 (ip), vehicle: saline with Tween-80
[3] = dose: 50.0 mg/kg/injection, schedule: Q04DX002 (ip), vehicle: saline with Tween-80
[4] = dose: 100.0 mg/kg/injection, schedule: Q04DX002 (ip), vehicle: saline with Tween-80
[5] = dose: 200.0 mg/kg/injection, schedule: Q04DX002 (ip), vehicle: saline with Tween-80
[6] = dose: 25.0 mg/kg/injection, schedule: Q01DX005 (ip), vehicle: Klucel (hydroxypropylcellulose) (HPC)
[7] = dose: 50.0 mg/kg/injection, schedule: Q01DX005 (ip), vehicle: Klucel (hydroxypropylcellulose) (HPC)
[8] = dose: 100.0 mg/kg/injection, schedule: Q01DX005 (ip), vehicle: Klucel (hydroxypropylcellulose) (HPC)
[9] = dose: 50.0 mg/kg/injection, schedule: Q01DX009 (ip), vehicle: saline
[10] = dose: 200.0 mg/kg/injection, schedule: Q01DX009 (ip), vehicle: saline
[11] = dose: 12.5 mg/kg/injection, schedule: Q01DX005 (ip), vehicle: Klucel (hydroxypropylcellulose) (HPC)
[12] = dose: 12.5 mg/kg/injection, schedule: Q01DX009 (ip), vehicle: saline
[13] = dose: 25.0 mg/kg/injection, schedule: Q01DX009 (ip), vehicle: saline
[14] = dose: 400.0 mg/kg/injection, schedule: Q04DX002 (ip), vehicle: saline with Tween-80
[15] = dose: 100.0 mg/kg/injection, schedule: Q01DX009 (ip), vehicle: saline with Tween-80
[16] = dose: 100.0 mg/kg/injection, schedule: Q04DX002 (ip), vehicle: Klucel (hydroxypropylcellulose) (HPC)
[17] = dose: 200.0 mg/kg/injection, schedule: Q04DX002 (ip), vehicle: Klucel (hydroxypropylcellulose) (HPC)

COc1cc(CC2C(=O)OCC2Cc2ccc3c(c2)OCO3)cc(OC)c1OC (stereo unspecified)
T/C [1]: 98 % of control | T/C [2]: 104 % of control | T/C (dose: 50.0 mg/kg/injection, schedule: Q01DX009 (ip), vehicle: saline with Tween-80): 100 % of control | T/C (dose: 50.0 mg/kg/injection, schedule: Q04DX002 (ip), vehicle: acetone): 94 % of control | T/C [3]: 103 % of control | T/C (dose: 100.0 mg/kg/injection, schedule: Q04DX002 (ip), vehicle: acetone): 100 % of control | T/C [4]: 100 % of control | T/C (dose: 200.0 mg/kg/injection, schedule: Q04DX002 (ip), vehicle: acetone): 100 % of control | T/C [5]: 100 % of control

CCOP(=O)(CSc1ccccc1)NC1CCCCC1 (stereo unspecified)
T/C [6]: 94 % of control | T/C [7]: 94 % of control | T/C [8]: 88 % of control

O=C1CCC(CBr)(C(=O)O)O1 (stereo unspecified)
T/C [9]: 102 % of control | T/C (dose: 100.0 mg/kg/injection, schedule: Q01DX009 (ip), vehicle: saline): 111 % of control | T/C [10]: 100 % of control

Cc1c[nH]c2nc(C)n(-c3ccccc3)c(=N)c12
T/C [11]: 100 % of control | T/C [6]: 93 % of control | T/C [7]: 101 % of control and 96 % of control

COC(=O)n1sc(SC)nc1=N
T/C [11]: 88 % of control | T/C [6]: 114 % of control | T/C [7]: 100 % of control and 114 % of control

CC(C)NC(=O)OCc1c(COC(=O)NC(C)C)c(-c2ccc(Cl)cc2)n2c1CCC2
T/C (dose: 3.12 mg/kg/injection, schedule: Q01DX005 (ip), vehicle: distilled water + Tween-80): 161 % of control | T/C (dose: 6.25 mg/kg/injection, schedule: Q01DX005 (ip), vehicle: distilled water + Tween-80): 152 % of control | T/C (dose: 12.5 mg/kg/injection, schedule: Q01DX005 (ip), vehicle: distilled water + Tween-80): 186 % of control and 190 % of control | T/C (dose: 25.0 mg/kg/injection, schedule: Q01DX005 (ip), vehicle: distilled water + Tween-80): 186 % of control | T/C (dose: 50.0 mg/kg/injection, schedule: Q01DX005 (ip), vehicle: distilled water + Tween-80): 110 % of control and 93 % of control

C[As](C)SCC(NC(=O)CCC(N)C(=O)O)C(=O)NCC(=O)O (stereo unspecified)
T/C [12]: 104 % of control | T/C [13]: 109 % of control | T/C [10]: 97 % of control

N#CNC(=NC12CC3CC(CC(C3)C1)C2)Nc1ccncc1
T/C [4]: 100 % of control | T/C [14]: 109 % of control

CCCCC1C=CC2C(N1)N2C#N (stereo unspecified)
T/C (dose: 6.25 mg/kg/injection, schedule: Q01DX009 (ip), vehicle: saline): 102 % of control | T/C [12]: 99 % of control | T/C [13]: 102 % of control | T/C [15]: 86 % of control

O=C1C(=Cc2ccccc2)C(=O)c2ccccc21
T/C (dose: 25.0 mg/kg/injection, schedule: Q04DX002 (ip), vehicle: saline with Tween-80): 108 % of control | T/C [3]: 109 % of control | T/C [4]: 109 % of control | T/C [5]: 107 % of control | T/C [14]: 112 % of control

OCC1OC(n2ccc3c(Cl)ncnc32)C(O)C1O (stereo unspecified)
T/C (dose: 6.25 mg/kg/injection, schedule: Q01DX005 (ip), vehicle: suspension in saline): 110 % of control | T/C (dose: 12.5 mg/kg/injection, schedule: Q01DX005 (ip), vehicle: suspension in saline): 117 % of control | T/C (dose: 25.0 mg/kg/injection, schedule: Q01DX005 (ip), vehicle: suspension in saline): 96 % of control

Nc1ccc(C(=O)Nc2ccc(S(=O)(=O)O)c3cccc(O)c23)cc1
T/C [7]: 109 % of control | T/C [8]: 111 % of control | T/C (dose: 200.0 mg/kg/injection, schedule: Q01DX005 (ip), vehicle: Klucel (hydroxypropylcellulose) (HPC)): 109 % of control

C=C(C)c1nc(N)nc(NC)n1
T/C [16]: 98 % of control | T/C [17]: 107 % of control | T/C (dose: 400.0 mg/kg/injection, schedule: Q04DX002 (ip), vehicle: Klucel (hydroxypropylcellulose) (HPC)): 98 % of control

C=C1C(=O)OC2C3[C@@]4(C)O[C@H]4[C@H]4O[C@@]34[C@](C)(O)CC(OC(C)=O)[C@@H]12 (stereo partly specified)
T/C (dose: 1687.5 micrograms/kg/injection, schedule: Q01DX005 (ip), vehicle: Klucel (hydroxypropylcellulose) (HPC)): 104 % of control | T/C (dose: 3375.0 micrograms/kg/injection, schedule: Q01DX005 (ip), vehicle: Klucel (hydroxypropylcellulose) (HPC)): 108 % of control | T/C (dose: 6750.0 micrograms/kg/injection, schedule: Q01DX005 (ip), vehicle: Klucel (hydroxypropylcellulose) (HPC)): 100 % of control | T/C (dose: 13500.0 micrograms/kg/injection, schedule: Q01DX005 (ip), vehicle: Klucel (hydroxypropylcellulose) (HPC)): 106 % of control

Nc1ccc2ccccc2c1-c1c(N)ccc2ccccc12
T/C (dose: 6.25 mg/kg/injection, schedule: Q01DX009 (ip), vehicle: Klucel (hydroxypropylcellulose) (HPC)): 109 % of control | T/C (dose: 12.5 mg/kg/injection, schedule: Q01DX009 (ip), vehicle: Klucel (hydroxypropylcellulose) (HPC)): 91 % of control | T/C (dose: 25.0 mg/kg/injection, schedule: Q01DX009 (ip), vehicle: Klucel (hydroxypropylcellulose) (HPC)): 102 % of control | T/C (dose: 50.0 mg/kg/injection, schedule: Q01DX009 (ip), vehicle: Klucel (hydroxypropylcellulose) (HPC)): 111 % of control

C(=C/c1cc2ccc(C3=NCCN3)cc2o1)/c1cc2cc(C3=NCCN3)ccc2[nH]1
T/C (dose: 200.0 mg/kg/injection, schedule: Q04DX003 (ip), vehicle: suspension in saline): 113 % of control

OCCN(CCCN(CCO)C(=S)S)C(=S)S.[Cu+2]
T/C (dose: 12.5 mg/kg/injection, schedule: Q01DX005 (ip), vehicle: saline + Tween-80 + alcohol): 98 % of control | T/C (dose: 25.0 mg/kg/injection, schedule: Q01DX005 (ip), vehicle: saline + Tween-80 + alcohol): 99 % of control | T/C (dose: 50.0 mg/kg/injection, schedule: Q01DX005 (ip), vehicle: saline + Tween-80 + alcohol): 102 % of control and 104 % of control

O=C1C2=C(Nc3cc([N+](=O)[O-])ccc3N2)OC1c1ccccc1Cl (stereo unspecified)
T/C (dose: 60.0 mg/kg/injection, schedule: Q01DX005 (ip), vehicle: Klucel (hydroxypropylcellulose) (HPC)): 102 % of control | T/C (dose: 120.0 mg/kg/injection, schedule: Q01DX005 (ip), vehicle: Klucel (hydroxypropylcellulose) (HPC)): 98 % of control | T/C (dose: 240.0 mg/kg/injection, schedule: Q01DX005 (ip), vehicle: Klucel (hydroxypropylcellulose) (HPC)): 98 % of control

O=C1C2C3C=CC(O3)C2C(=O)N1N=C1CCCCC1 (stereo unspecified)
T/C (dose: 50.0 mg/kg/injection, schedule: Q01DX005 (ip), vehicle: saline with Tween-80): 99 % of control | T/C (dose: 100.0 mg/kg/injection, schedule: Q01DX005 (ip), vehicle: saline with Tween-80): 101 % of control | T/C (dose: 200.0 mg/kg/injection, schedule: Q01DX005 (ip), vehicle: saline with Tween-80): 101 % of control

CC1CCCN(CCSSCCN2CCCC(C)C2)C1 (stereo unspecified)
T/C [12]: 109 % of control | T/C [13]: 113 % of control | T/C [9]: 113 % of control

CC1Cc2c([nH]c3ccc(Cl)cc23)CN1 (stereo unspecified)
T/C (dose: 3.12 mg/kg/injection, schedule: Q01DX009 (ip), vehicle: saline with Tween-80): 106 % of control | T/C (dose: 6.25 mg/kg/injection, schedule: Q01DX009 (ip), vehicle: saline with Tween-80): 100 % of control | T/C [1]: 101 % of control | T/C [2]: 101 % of control

C[Si](C)(CCCOCC1CO1)O[Si](C)(C)CCCOCC1CO1 (stereo unspecified)
T/C [15]: 100 % of control | T/C (dose: 200.0 mg/kg/injection, schedule: Q01DX009 (ip), vehicle: saline with Tween-80): 101 % of control | T/C (dose: 400.0 mg/kg/injection, schedule: Q01DX009 (ip), vehicle: saline with Tween-80): 114 % of control

Cn1c(=O)c2[nH]c(-n3ccc(=N)cc3)nc2n(C)c1=O
T/C (dose: 100.0 mg/kg/injection, schedule: Q04DX003 (ip), vehicle: saline): 103 % of control | T/C (dose: 200.0 mg/kg/injection, schedule: Q04DX003 (ip), vehicle: saline): 99 % of control | T/C (dose: 400.0 mg/kg/injection, schedule: Q04DX003 (ip), vehicle: saline): 99 % of control

Nc1ccc(S(=O)(=O)Nc2cccc3[nH]c(=O)oc23)cc1
T/C (dose: 50.0 mg/kg/injection, schedule: Q04DX002 (ip), vehicle: Klucel (hydroxypropylcellulose) (HPC)): 101 % of control | T/C [16]: 99 % of control | T/C [17]: 100 % of control

CC1Oc2[nH]c(=O)n(-c3ccc(Cl)cc3)c(=S)c2C1C (stereo unspecified)
T/C (dose: 12.5 mg/kg/injection, schedule: Q01DX001 (ip), vehicle: Klucel (hydroxypropylcellulose) (HPC)): 100 % of control | T/C (dose: 25.0 mg/kg/injection, schedule: Q01DX001 (ip), vehicle: Klucel (hydroxypropylcellulose) (HPC)): 102 % of control | T/C (dose: 50.0 mg/kg/injection, schedule: Q01DX001 (ip), vehicle: Klucel (hydroxypropylcellulose) (HPC)): 101 % of control
